Data on 4 compounds can be found in US20040058901A1, “Crystalline ethanolate solvate form of zafirluskast process for manufacture and pharmaceutical compositions thereof” (priority 2000, published 2004).

Several values for one entry are separate records, joined by “and”; a condition that tells them apart may be missing. Equal entries are not always repeated. Entries after “also recorded” stand apart in the source; their conditions may differ. Where two headings read alike, the source gives them in different places.

The conditions of data set [1]: cited from earlier work; for physical stability of the solid form: as disclosed in U.S. Pat. No. 5,993,859.
For data set [2] the following is noted: as disclosed in U.S. Pat. No. 5,993,859; cited from earlier work.
A short description of data set [3]: Physical stability of zafirlukast ethanolate and its compositions. The class given is physicochemical.
Data set [4] is described as follows: Drying of zafirlukast ethanolate in an air oven (weight loss, physical properties). The data set is classed as physicochemical. To be noted: 105±1° C., 4 hours. As to the method: Preferably, the methods further comprise the step of drying the crystals of zafirlukast ethanolate. Effective drying methods include vacuum oven drying, air oven or simple vacuum desiccator drying. The ethanolate is stable at ambient temperature and will tolerate vacuum drying. When vacuum oven drying is used, one must exercise caution to avoid breaking the ethanolate. Preferred drying conditions for the ethanol solvate are about 30 to about 70° C. vacuum oven drying and are about 30 to about 105° C. at air oven drying.
5.0 g of zafirlukast Forms A, B or X, prepared according to U.S. Pat. No. 5,993,859 or zafirlukast, prepared according to J. Med. Chem., v. 33, 1781 (1990) were dissolved in hot acetone (50 mL). The solution was concentrated under reduced pressure to the volume of about 20 mL, heated to reflux and absolute ethanol (100 mL) was added to the solution. Acetone was distilled off from the stirred mixture through a 10 cm Vigreux column equipped with a distillation head until the temperature of vapor in the head of the column reached 78° C. The resulting mixture was kept overnight at the room temperature. The precipitated crystals were filtered off, washed on filter with ice cold absolute ethanol (2×5 mL) and dried under reduced pressure at 60° C. (water bath) to give crystalline zafirlukast ethanolate with mp 130-132° C.

The nature of data set [5]: Hygroscopicity comparison in controlled humidity chambers, Karl Fisher water content. The class given is physicochemical. To be noted: compared with zafirlukast Form A; 25° C./60% relative humidity and 40° C./75% relative humidity, two weeks. As to the method:
Hygroscopicities of zafirlukast ethanolate and zafirlukast Form A were compared by maintaining samples in controlled humidity chambers at 25° C. under 60% relative humidity and at 40° C. under 75% relative humidity for a period of two weeks, followed by Karl Fisher analysis of water content.

The mark [6] stands for this setting: high relative humidity and elevated temperatures.

Regarding `COc1cc(C(=O)NS(=O)(=O)c2ccccc2C)ccc1Cc1cn(C)c2ccc(NC(=O)OC3CCCC3)cc12` [Form X, cyclopentyl 3-[2-methoxy-4-[(o-tolylsulfonyl)carbamoyl]benzyl]-1-methylindole-5-carbamate], the “physical stability of the solid form” value in data set [1] is given as “physically stable”. Also, the bioavailability result in data set [2] is “relatively poor bioavailability”.
For `CCO.COc1cc(C(=O)NS(=O)(=O)c2ccccc2C)ccc1Cc1cn(C)c2ccc(NC(=O)OC3CCCC3)cc12` [zafirlukast ethanolate], in data set [3], the “physical stability of the solid form” value was “relatively stable”. In addition, the “stability at ambient temperature” value in data set [3] (ambient temperature) is “stable”. Moreover, the “stability under high relative humidity and elevated temperatures” value in data set [3] (setting [6]) was “stable”. Moreover, in data set [4], the “change of physical properties on drying (mp, 1H NMR, infra-red spectra)” value is reported as “without substantial change of physical properties”; the “weight loss on drying” value was < 1% and 0.86%. In addition, in data set [5], the hygroscopicity result is given as “less hygroscopic than other known forms of zafirlukast; also recorded: less hygroscopic than Form A of zafirlukast”.
Take `COc1cc(C(=O)NS(=O)(=O)c2ccccc2C)ccc1Cc1cn(C)c2ccc(NC(=O)OC3CCCC3)cc12` [Form B, cyclopentyl 3-[2-methoxy-4-[(o-tolylsulfonyl)carbamoyl]benzyl]-1-methylindole-5-carbamate]: the “physical stability of the solid form” value in data set [1] is listed as “physically unstable”.
As for `COc1cc(C(=O)NS(=O)(=O)c2ccccc2C)ccc1Cc1cn(C)c2ccc(NC(=O)OC3CCCC3)cc12` [Form A, cyclopentyl 3-[2-methoxy-4-[(o-tolylsulfonyl)carbamoyl]benzyl]-1-methylindole-5-carbamate], in data set [1] (setting [6]), the “form conversion under high relative humidity and elevated temperatures” value was “conversion of form A into form B occurs”. Besides, the bioavailability result in data set [2] is on record as “relatively good bioavailability”.
